The values below are quoted from earlier work in paper PMC6954965 (Neuropharmacology, 2019).

In one data set the test system is Male Sprague-Dawley rats. The conditions noted are these: administered directly into the nucleus accumbens shell; ref Schmidt et al., 2013.
A further data set deals with PICK1 PDZ domain. The conditions noted are these: binds the PDZ domain of PICK1; ref Thorsen et al., 2010.
The target in the next data set is PSD95 tandem PDZ domains. To be noted: dimeric peptide inhibitor of PSD95 tandem PDZ domains; ref Bach et al., 2012.

For the compound `CCOC(=O)NC(=O)/C(C#N)=C/c1ccc(Cl)c(Cl)c1` [FSC231], the “reinstatement of cocaine seeking” value with Male Sprague-Dawley rats is given as “sufficient to attenuate”. The Ki – broadly, a measure of affinity in units of concentration, obtained from inhibition or displacement – at PICK1 PDZ domain is 10.1 µM.
Regarding Tat-NPEG4(IEDTV)(2), the Ki at PSD95 tandem PDZ domains is 0.0046 µM.
